The results in this text go back to publication PMC11509018, “Evaluation of the Role of Tanshinone I in an In Vitro System of Charcot-Marie-Tooth Disease Type 2N” (International Journal of Molecular Sciences, 2024).

The target in assay [1] is T1, AlaRS^R329H (Homo sapiens, UniProt P49588, R329H).
T1 construct: made in house; host or cells: E. coli BL21 (DE3), pET-21a
T1 sequence (P49588 1-968 R329H): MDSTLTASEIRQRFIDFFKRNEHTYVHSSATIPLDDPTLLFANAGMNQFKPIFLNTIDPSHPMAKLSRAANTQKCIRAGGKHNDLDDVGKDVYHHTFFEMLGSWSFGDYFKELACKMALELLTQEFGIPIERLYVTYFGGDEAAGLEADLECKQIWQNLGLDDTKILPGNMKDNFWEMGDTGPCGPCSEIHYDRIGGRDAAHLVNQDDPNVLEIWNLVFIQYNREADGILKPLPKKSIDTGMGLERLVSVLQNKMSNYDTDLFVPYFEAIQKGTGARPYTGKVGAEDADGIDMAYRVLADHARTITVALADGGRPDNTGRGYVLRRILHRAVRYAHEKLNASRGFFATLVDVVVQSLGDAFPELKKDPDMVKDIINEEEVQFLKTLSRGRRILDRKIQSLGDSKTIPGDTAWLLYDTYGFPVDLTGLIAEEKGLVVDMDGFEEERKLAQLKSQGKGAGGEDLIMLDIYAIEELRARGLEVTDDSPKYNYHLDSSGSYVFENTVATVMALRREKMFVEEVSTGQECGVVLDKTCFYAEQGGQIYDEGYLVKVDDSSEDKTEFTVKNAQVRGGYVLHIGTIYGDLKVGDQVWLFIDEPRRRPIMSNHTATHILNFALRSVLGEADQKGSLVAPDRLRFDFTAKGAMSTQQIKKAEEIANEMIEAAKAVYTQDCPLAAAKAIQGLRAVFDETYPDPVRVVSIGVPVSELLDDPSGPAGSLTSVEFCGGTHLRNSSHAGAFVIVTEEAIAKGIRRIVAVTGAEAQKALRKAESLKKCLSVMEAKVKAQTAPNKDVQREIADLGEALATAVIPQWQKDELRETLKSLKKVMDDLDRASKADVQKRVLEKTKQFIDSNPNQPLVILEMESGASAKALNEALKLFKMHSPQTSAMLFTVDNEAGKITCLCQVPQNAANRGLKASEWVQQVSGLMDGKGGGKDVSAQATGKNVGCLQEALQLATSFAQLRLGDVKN
The assay can be described thus: Thermal shift assay (TSA). As to conditions: positive hit = shift of more than 2.5 °C. The assay is classed as binding. An excerpt:
In this assay, with increasing temperatures, the protein undergoes thermal unfolding, exposing its hydrophobic core. Subsequently, a fluorescent dye binds to these hydrophobic regions, becoming unquenched. Fluorescence is closely monitored, and the midpoint of the protein unfolding transition is designated as the Tm. Ligand binding frequently influences protein thermal stability during denaturation. Thus, the ligand binding affinity of any potential inhibitor can be gauged by evaluating the shift in the Tm. In this experiment, we screened a library of 2000 small molecules (Table S1) and classified as positive hits those that caused a shift in the Tm of the mutant protein of more than 2.5 °C. From the TSA, we identified four small molecules that met this criterion (Figure 2A, Table 1). Specifically, Atazanavir sulfate caused a shift of 4.0 °C, Tanshinone I a shift of 3.1 °C, Hederacolchiside A1 a shift of 4.3 °C, and Hexylresorcinol a shift of 5.5 °C (Figure 2B). To assess the impact of small molecules on the thermal stability of mutant proteins, thermal shift assays were performed using a […] (Applied Biosystems, Waltham, MA, USA) with the Protein Thermal Shift™ Kit dye (Thermo Fisher Scientific, Waltham, MA, USA). Each well of a 96-well Optical Reaction Plate (Applied Biosystems) contained 14 μL of thermal shift buffer, 2 μL of diluted thermal shift dye (8×), 2 μL of a 1 mM small molecule solution, and 2 μL of 1 mg/mL protein. Plates were incubated at 4 °C for 1 h before being heated from 25 °C to 95 °C at 1 °C/min. The fluorescence signal of SYPRO orange (excitation/emission: 490/530 nm) was recorded at 30 s intervals to monitor protein denaturation. The melting temperature (Tm), defined as the midpoint of the unfolding transition, was determined from the fluorescence–temperature curve. ΔTm was calculated as the difference in Tm between AlaRS^R329H treated with compounds and the control. Experiments were conducted in triplicate for accuracy. The experiment was repeated three times.

For assay [2], the target named is T1, AlaRS^R329H. The experiment in a line: Biolayer interferometry (BLI). The format is binding. The following applies: immobilized AlaRS^R329H, 40, 20, 10, 5, 2.5 μM, mean ± SD, triplicate. An excerpt:
To quantitatively analyze the binding affinity between the small molecules and the CMT mutant proteins, we performed BLI analysis on the selected candidates. BLI offers direct measurements of drug–protein binding kinetics, including key parameters such as the equilibrium dissociation constant (KD), association rate (Kon), and dissociation rate (Koff). This analysis provided key insights into the binding affinities of the four small molecules with the mutant protein AlaRS^R329H. […] To further quantify the binding of small molecules to mutant proteins, binding experiments with AlaRS^R329H proteins and small molecules were conducted using an Octet R8 system (ForteBio, Fremont, CA, USA). Purified His-tagged AlaRS^R329H proteins (500 μg/mL) were captured on Ni-NTA biosensors (ForteBio, Fremont, CA, USA), achieving a saturation response of 4–5 nm after 300 s. The biosensors were then transferred to Octet buffer (PBS with 0.01% Tween 20) for 180 s to remove loosely bound, nonspecific proteins and to establish a stable baseline. Following this, the sensors were immersed in diluted Tanshinone I (2.5–100 μM in assay buffer) for 120 s to record the association signal, and then transferred back into Octet buffer to monitor the dissociation signal for 120 s. Reference wells containing buffer instead of Tanshinone I were included to correct for baseline shifts. Additionally, a parallel set of Ni-NTA sensors in buffer served as negative reference controls to account for nonspecific binding of the compounds to the biosensor surface. The data were processed using a double reference subtraction protocol to eliminate nonspecific signals, background noise, and signal drifts caused by biosensor variability. All assays were performed in 96-well black plates with a total volume of 200 μL per well at 30 °C. Data analysis, including correction and curve fitting, was carried out using Octet® Analysis Studio 12.2.2.26. The experiment was repeated three times.
A general note: BLI is a label-free optical method that tracks binding on a fibre tip over time.

In the case of `Cc1coc2c1C(=O)C(=O)c1c-2ccc2c(C)cccc12` [Tanshinone I], in assay [1], the “ΔTm (shift between the Tm values of AlaRS^R329H with and without compounds)” value came to 3.1 °C. Moreover, in assay [2], the Kd (usually a measure of binding affinity in units of concentration) turned out to be 5.1 ± 1.9 µM.
